Results on eleven molecules are retold here after patent US9346761B2, “Arginine methyltransferase inhibitors and uses thereof” (Epizyme, Inc., priority 2013, dated 2016).

The target of assay [1] is T1, Full-length human PRMT6 (Homo sapiens, UniProt Q96LA8).
T1 construct: Flag-PRMT6-His was eluted with 200 ug/ml FLAG peptide in the same buffer; made in house; host or cells: HEK 293F cells (BacMam virus, pFastBacMam)
As to the kind of experiment: PRMT6 biochemical assay (3H-SAM Flashplate, peptide substrate). The source says:
General Materials. S-adenosylmethionine (SAM), S-adenosylhomocysteine (SAH), bicine, Tween20, dimethylsulfoxide (DMSO), bovine skin gelatin (BSG), sodium butyrate and Tris(2-carboxyethyl)phosphine hydrochloride solution (TCEP) were purchased from Sigma-Aldrich at the highest level of purity possible. ^3H-SAM was purchase from American Radiolabeled Chemicals with a specific activity of 80 Ci/mmol. 384-well streptavidin Flashplates were purchased from PerkinElmer.
Substrates. Peptide representative of human histone H4 residues 36-50 was synthesized with an N-terminal linker-affinity tag motif and a C-terminal amide cap by 21st Century Biochemicals.
The amplified gene was subcloned into pFastBacMam (Viva Biotech).
Protein Expression. Recombinant baculovirus were generated according to Bac-to-Bac kit instructions (Life Technologies). […] Infections were carried out at 37° C. for 48 hours, harvested by centrifugation, and stored at −80° C. for purification.
Protein Purification. […] Column was washed with 20 mM imidazole in the same buffer and Flag-PRMT6-His was eluted with 150 mM imidazole. Pooled fractions were dialysed against buffer Ni-A and further purified by anti-flag M2 affinity chromatography. Flag-PRMT6-His was eluted with 200 ug/ml FLAG peptide in the same buffer. Pooled fractions were dialysed in 20 mM Tris, 150 mM NaCl, 10% glycerol and 5 mM β-mercaptoethanol, pH 7.8.
(§1) General Procedure for PRMT6 Enzyme Assays on Peptide Substrates. The assays were all performed in a buffer consisting of 20 mM Bicine (pH=7.6), 1 mM TCEP, 0.005% BSG, and 0.002% Tween 20, prepared on the day of use. […] DMSO (1 ul) was added to Columns 11, 12, 23, 24, rows A-H for the maximum signal control and 1 ul of SAH, a known product and inhibitor of PRMT6, was added to columns 11, 12, 23, 24, rows I-P for the minimum signal control. A cocktail (40 ul) containing the PRMT6 enzyme was added by Multidrop Combi (Thermo-Fisher). The compounds were allowed to incubate with PRMT6 for 30 min at room temperature, then a cocktail (10 ul) containing SAM and peptide was added to initiate the reaction (final volume=51 ul). […] The assays were stopped by the addition of non-radiolabeled SAM (10 ul) to a final concentration of 400 uM, which dilutes the ^3H-SAM to a level where its incorporation into the peptide substrate is no longer detectable. 50 ul of the reaction in the 384-well polypropylene plate was then transferred to a 384-well Flashplate and the biotinylated peptides were allowed to bind to the streptavidin surface for at least 1 hour before being washed once with 0.1% Tween20 in a Biotek ELx405 plate washer. The plates were then read in a PerkinElmer TopCount plate reader to measure the quantity of ^3H-labeled peptide bound to the Flashplate surface, measured as disintegrations per minute (dpm) or alternatively, referred to as counts per minute (cpm).
(§2) Where dpm=disintegrations per minute, cmpd=signal in assay well, and min and max are the respective minimum and maximum signal controls.
(§3) Where top and bottom are the normally allowed to float, but may be fixed at 100 or 0 respectively in a 3-parameter fit. The Hill Coefficient normally allowed to float but may also be fixed at 1 in a 3-parameter fit. Y is the % inhibition and X is the compound concentration.

Assay [2] relates to mono-methyl arginine in RKO cells. Put plainly: RKO methylation assay, In Cell Western for mono-methyl arginine and DNA content. The following applies: Homo sapiens; In Cell Western, RKO cells, 72 hours, percent activation of mono-methyl arginine signal; read-out: EC30. Type of assay: cell-based. The source says:
RKO adherent cells were purchased from ATCC (American Type Culture Collection), Manassas, Va., USA. DMEM/Glutamax medium, penicillin-streptomycin, heat inactivated fetal bovine serum, 0.05% trypsin and D-PBS were purchased from Life Technologies, Grand Island, N.Y., USA. Odyssey blocking buffer, 800CW goat anti-rabbit IgG (H+L) antibody, and Licor Odyssey infrared scanner were purchased from Licor Biosciences, Lincoln, Nebr., USA. Mono-methyl arginine antibody was purchased from Cell Signaling Technology, Danvers, Mass., USA. Methanol was purchased from VWR, Franklin, Mass., USA. 10% Tween 20 was purchased from KPL, Inc., Gaithersburg, Md., USA. […] was purchased from Biostatus Limited, Leicestershire, UK.
RKO adherent cells were maintained in growth medium (DMEM/Glutamax medium supplemented with 10% v/v heat inactivated fetal bovine serum and 100 units/mL penicillin-streptomycin) and cultured at 37° C. under 5% CO2
Cell Treatment, in Cell Western (ICW) for Detection of Mono-Methyl Arginine and DNA Content. […] Compound (100 nL) from a 96-well source plate was added directly to 384 well cell plate. Plates were incubated at 37° C., 5% CO2 for 72 hours. After three days of incubation, plates were brought to room temperature outside of the incubator for ten minutes and blotted on paper towels to remove cell media. 50 μL of ice cold 100% methanol was added directly to each well and incubated for 30 min at room temperature. After 30 min, plates were transferred to a Biotek EL406 plate washer and washed 2 times with 100 μL per well of wash buffer (1×PBS). Next 60 μL per well of Odyssey blocking buffer (Odyssey Buffer with 0.1% Tween 20 (v/v)) were added to each plate and incubated 1 hour at room temperature. Blocking buffer was removed and 20 μL per well of primary antibody was added (mono-methyl arginine diluted 1:200 in Odyssey buffer with 0.1% Tween 20 (v/v)) and plates were incubated overnight (16 hours) at 4° C. Plates were washed 5 times with 100 μL per well of wash buffer. […] The plates were washed 5 times with 100 μL per well wash buffer then 2 times with 100 μL per well of water. Plates were allowed to dry at room temperature then imaged on the Licor Odyssey machine which measures integrated intensity at 700 nm and 800 nm wavelengths. Both 700 and 800 channels were scanned.
Calculations: First, the ratio for each well was determined by:
Each plate included fourteen control wells of DMSO only treatment (minimum activation) as well as fourteen control wells for maximum activation treated with 20 μM of a reference compound. The average of the ratio values for each control type was calculated and used to determine the percent activation for each test well in the plate. Reference compound was serially diluted three-fold in DMSO for a total of nine test concentrations, beginning at 20 μM. Percent activation was determined and EC30 curves were generated using triplicate wells per concentration of compound.

The target in assay [3] is T2, Full-length human PRMT1 isoform 1 (Homo sapiens, UniProt Q99873).
T2 construct: GST-tagged PRMT1; made in house; host or cells: High Five insect cells (baculovirus, pFastBacI)
Put plainly: PRMT1 biochemical assay (3H-SAM Flashplate, peptide substrate).
Description: General Materials. S-adenosylmethionine (SAM), S-adenosylhomocysteine (SAH), bicine, Tween20, dimethylsulfoxide (DMSO), bovine skin gelatin (BSG), and Tris(2-carboxyethyl)phosphine hydrochloride solution (TCEP) were purchased from Sigma-Aldrich at the highest level of purity possible. ^3H-SAM was purchase from American Radiolabeled Chemicals with a specific activity of 80 Ci/mmol. 384-well streptavidin Flashplates were purchased from PerkinElmer.
Protein Expression. Recombinant baculovirus were generated according to Bac-to-Bac kit instructions (Life Technologies). […] Infections were carried out at 27° C. for 48 hours, harvested by centrifugation, and stored at −80° C. for purification.
Protein Purification. […] GST-tagged PRMT1 was eluted with 50 mM Tris, 2 mM glutathione, pH 7.8, dialysed in buffer A and concentrated to 1 mg/mL.
as §1, with “PRMT1” for “PRMT6”, “PRMT1,” for “PRMT6,”, “300” for “400”
as §2, §3

Each structure is given as a SMILES string.

T2 sequence (Q99873 with tags, fused parts or gaps): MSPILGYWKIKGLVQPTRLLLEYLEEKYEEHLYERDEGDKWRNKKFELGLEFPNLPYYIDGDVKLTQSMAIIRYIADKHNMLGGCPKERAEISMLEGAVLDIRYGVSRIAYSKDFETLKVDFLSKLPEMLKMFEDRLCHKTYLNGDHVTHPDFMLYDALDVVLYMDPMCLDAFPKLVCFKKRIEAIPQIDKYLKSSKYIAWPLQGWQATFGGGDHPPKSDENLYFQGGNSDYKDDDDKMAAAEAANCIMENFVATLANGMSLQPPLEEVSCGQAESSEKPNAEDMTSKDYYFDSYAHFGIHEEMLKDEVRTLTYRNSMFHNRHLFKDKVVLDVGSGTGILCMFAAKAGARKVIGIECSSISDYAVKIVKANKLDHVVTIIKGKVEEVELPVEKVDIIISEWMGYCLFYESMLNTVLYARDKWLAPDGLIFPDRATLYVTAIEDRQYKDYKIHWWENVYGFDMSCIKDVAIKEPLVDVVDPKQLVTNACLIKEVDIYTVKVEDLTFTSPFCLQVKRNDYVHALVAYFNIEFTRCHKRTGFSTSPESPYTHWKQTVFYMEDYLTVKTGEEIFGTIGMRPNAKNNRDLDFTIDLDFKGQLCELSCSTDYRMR
T1 sequence (Q96LA8 with tags, fused parts or gaps): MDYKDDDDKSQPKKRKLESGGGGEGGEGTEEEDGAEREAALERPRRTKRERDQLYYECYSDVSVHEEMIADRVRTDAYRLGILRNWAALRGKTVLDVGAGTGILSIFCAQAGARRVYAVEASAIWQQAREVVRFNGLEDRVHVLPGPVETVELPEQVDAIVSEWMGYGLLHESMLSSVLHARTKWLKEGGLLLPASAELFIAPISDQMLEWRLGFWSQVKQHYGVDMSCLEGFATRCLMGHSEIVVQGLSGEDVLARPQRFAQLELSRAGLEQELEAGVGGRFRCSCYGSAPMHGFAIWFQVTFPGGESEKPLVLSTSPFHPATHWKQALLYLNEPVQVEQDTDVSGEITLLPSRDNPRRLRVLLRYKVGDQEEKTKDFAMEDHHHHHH

By IC50 is commonly meant the point on the concentration scale where inhibition reaches its midpoint. Low values mean higher potency, high ones lower potency. A word on the EC30: it is the point of the concentration-response curve where the effect stands at 30%. For `CNCCN(C)Cc1c[nH]nc1-c1ccc(Oc2cccc(C#N)c2)cc1` [Compound 261], the IC50 in assay [1] and in assay [3] was less than 0.1 µM each time. Besides, the EC30 in assay [2] is less than 3 µM.
As for `CNCCN(C)Cc1c[nH]nc1-c1ccc(Oc2cccc(OC)c2)cc1` [Compound 230], the IC50 in assay [1] and in assay [3] was less than 0.1 µM in each case. The EC30 in assay [2] was less than 3 µM.
As to `CNCCN(C)Cc1n[nH]cc1-c1ccc(Oc2cccc(F)c2)cc1` [Compound 270], the IC50 in assay [1] and in assay [3] was less than 0.1 µM each time. For the same molecule, the EC30 in assay [2] was less than 3 µM.
Regarding `CNCCN(C)Cc1c[nH]nc1-c1ccc(OC2CCOCC2)cc1` [Compound 175], the IC50 in assay [1] and in assay [3] was less than 0.1 µM in each case. For the same molecule, in assay [2], the EC30 is less than 3 µM.
For the molecule `CNCCN(C)Cc1c[nH]nc1-c1ccc(Oc2ccccc2)c(C(=O)N(C)C)c1` [Compound 233], the half-inhibitory concentration (IC50) in assay [1] and in assay [3] was less than 0.1 µM throughout. Besides, the EC30 in assay [2] is greater than 12 µM.
Consider `CNCCN(C)Cc1n[nH]cc1-c1ccc(Oc2ccccc2)c(C(=O)N(C)C)c1` [Compound 241], for which the IC50 in assay [1] and in assay [3] was less than 0.1 µM in each case. In addition, the EC30 in assay [2] fell in the range of 3.01 to 12 µM.
Turning to `CN(CCN)Cc1c[nH]nc1-c1ccc(OC2CCOCC2)cc1` [Compound 178], the IC50 in assay [1] and in assay [3] was less than 0.1 µM throughout. The EC30 in assay [2] is less than 3 µM.
As to `CNCCN(C)Cc1cn(Cc2ccncc2)nc1-c1ccc(OC(C)C)cc1` [Compound 245], the results for the IC50 in assay [1] and in assay [3] were 0.101 to 1 µM and less than 0.1 µM, respectively. The EC30 in assay [2] was less than 3 µM.
Taken in the same sequence, the figures for `CNCCN(C)Cc1c[nH]nc1-c1cc(CC(C)C)cc(CC(C)C)c1` [Compound 281] were 0.101 to 1 µM, less than 0.1 µM and 3.01 to 12 µM.
The corresponding values for `CNCCN(C)Cc1c[nH]nc1-c1ccc(OCCCO)cc1` [Compound 236] are less than 0.1 µM, less than 0.1 µM and less than 3 µM.
Taken in the same sequence, the figures for `CNCCN(C)Cc1c[nH]nc1-c1ccc(Oc2ccccc2)c(C(=O)NC)c1` [Compound 232] were less than 0.1 µM, less than 0.1 µM and 3.01 to 12 µM.
